Measurements as given in PubChem BioAssay AID1418 (Emory University Molecular Libraries Screening Center, 2008).
Several values for one entry are separate records, joined by “and”; a condition that tells them apart may be missing. Equal entries are not always repeated. Activity calls are given as the source filed them. No rule for the calls is given here.

The compounds below were run against Induced myeloid leukemia cell differentiation protein Mcl-1 (Homo sapiens) (UniProt Q07820) (assay: blockers of Bid binding to Mcl-1 – biochemical, TR-FRET, dose response (AID 1418)). Details: Mcl-1/Bid peptide binding, TR-FRET (europium/Dy647), 2 hr.
Induced myeloid leukemia cell differentiation protein Mcl-1 (Homo sapiens), sequence (Q07820 whole entry, looked up): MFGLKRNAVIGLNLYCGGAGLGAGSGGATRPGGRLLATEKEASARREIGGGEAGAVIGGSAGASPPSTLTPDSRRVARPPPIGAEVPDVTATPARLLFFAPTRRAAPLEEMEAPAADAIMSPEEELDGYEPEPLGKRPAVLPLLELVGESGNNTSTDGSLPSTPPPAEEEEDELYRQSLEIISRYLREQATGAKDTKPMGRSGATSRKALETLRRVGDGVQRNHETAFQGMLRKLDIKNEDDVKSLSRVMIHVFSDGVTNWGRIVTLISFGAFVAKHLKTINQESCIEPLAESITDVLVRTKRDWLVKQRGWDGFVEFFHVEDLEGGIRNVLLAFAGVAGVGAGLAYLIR

| Structure (SMILES) | IC50 |
| --- | --- |
| O=C(NCc1nc2ncc(Br)cc2[nH]1)c1ccccc1 | > 54 µM (inactive) |
| Oc1[nH]c2ccccc2c1/C=N/N1CCCCC1 | > 54 µM (inactive) |
| COc1ccccc1NS(=O)(=O)c1cccc(NC(=O)C2CC(=O)N(Cc3ccccc3)C2)c1 (centres undefined) | > 54 µM (inactive) |
| CCOc1ccc(-c2csc3ncn(-c4ccc(OC)cc4)c(=O)c23)cc1 | > 54 µM (inactive) |
| COc1cc(/C=N/NC(=O)c2ccc(CN3c4cccc5cccc(c45)S3(=O)=O)cc2)cc(OC)c1O | 1.41 µM |
| c1ccc(Oc2nc3ccccc3n3cccc23)cc1 | > 54 µM (inactive) |
| CC1CCCC(C)N1CCNC(=O)C1CCN(S(=O)(=O)N2CCCCC2)CC1 (centres undefined) | > 54 µM (inactive) |
| Cc1cc2c(C(C)C)c(O)c(O)c(C=O)c2c(O)c1-c1c(C)cc2c(C(C)C)c(O)c(O)c(C=O)c2c1O | 1.17 µM and 0.86 µM |
| COc1ccc(C2C(C#N)=C(N)OC3=C2C(=O)CCC3)cc1OC (centres undefined) | > 54 µM (inactive) |
| COc1ccc(N2CCN(C(=O)c3ccc4c(c3)OCO4)CC2)cc1 | > 54 µM (inactive) |
| NC(N)=NS(=O)(=O)c1ccc(NC(=S)NC(=O)c2sc3ccccc3c2Cl)cc1 | 1.04 µM |
| CC(C)(C)c1nc2ccccc2c2nnc(SCC(=O)Nc3nc4ccccc4s3)n12 | 2.03 µM |
| O=C(O)CCc1nn2c3ccccc3n(CC(=O)c3ccccc3)c2nc1=O | > 54 µM (inactive) |
| c1ccc2nc3ccccc3nc2c1 | > 54 µM (inactive) |
| Nc1c(C(=O)NCC2CCCO2)sc2nc3c(c(-c4ccco4)c12)CC/C3=C\c1ccco1 (centres undefined) | > 54 µM (inactive) |
| C=CCn1cc(C(=O)NCc2ccco2)c(=O)c2cc(S(=O)(=O)N3CCCCCC3)ccc21 | > 54 µM (inactive) |
| CCOC(=O)C1CCCN(c2c(N3CCN(c4cccc(Cl)c4)CC3)c(=O)c2=O)C1 (centres undefined) | > 54 µM (inactive) |
| NC(=S)N/N=C/c1coc2c(ccc3ccccc32)c1=O | 4.99 µM |
| CN(C)S(=O)(=O)c1cccc(-c2nn(-c3ccccc3)cc2/C=C2\SC(=S)NC2=O)c1 | 9.99 µM |
| O=C(Cn1nc(C(=O)O)c2ccccc2c1=O)Nc1ccc2c(c1)C(=O)c1ccccc1C2=O | 2.93 µM |
| COc1ccc(NC(=O)Nc2nnc(CC(=O)NCc3ccccc3)s2)cc1 | > 54 µM (inactive) |
| O=[N+]([O-])c1cc(Br)c(O)c(/C=N/Nc2nnnn2-c2cccc3ccccc23)c1 | 13.9 µM |
| Cc1ccc(S(=O)(=O)/N=S(\C)C(C)C)cc1 (centres undefined) | > 54 µM (inactive) |
| c1ccc2[nH]c(CN3CCOCC3)nc2c1 | > 54 µM (inactive) |
| Cc1c(NC(=S)NC(NC(=O)C(C)C)C(Cl)(Cl)Cl)c(=O)n(-c2ccccc2)n1C (centres undefined) | > 54 µM (inactive) |

| Structure (SMILES) | IC50 |
| --- | --- |
| Cc1ccccc1NCC(=O)N/N=C/C(Br)=C/c1ccccc1 | > 54 µM (inactive) |
| O=C(CN1C(=O)c2ccccc2C1=O)N1CCCCC1 | > 54 µM (inactive) |
| CCOC(=O)c1nc(C)sc1-c1ccnn1S(=O)(=O)c1ccc(C)cc1 | > 54 µM (inactive) |
| CCOc1c(C(N)=O)c(-c2ccccc2)c2c(=O)[nH]c3ccccc3n12 | > 54 µM (inactive) |
| Cc1ccc2nc(N3CC(=O)Nc4ccccc43)nc(-c3ccccc3)c2c1 | > 54 µM (inactive) |
| O=C(NC(Cc1ccccc1)C(=O)O)c1ccc(S(=O)(=O)N2CCCCC2)cc1 (centres undefined) | > 54 µM (inactive) |
| Clc1ccc2nc(CN3CCCc4ccccc43)cn2c1 | > 54 µM (inactive) |
| O=C(Nc1nccs1)C1CC(=O)N(Cc2ccco2)C1 (centres undefined) | > 54 µM (inactive) |
| CCOc1cc(N2CCOCC2)c(OCC)cc1NC(=O)CN1CCc2ccccc2C1 | > 54 µM (inactive) |
| COc1cccc(Nc2nc(NCC3CCCO3)c3ccccc3n2)c1 (centres undefined) | > 54 µM (inactive) |
| N=C1S/C(=C\c2ccc(-c3cccc(Cl)c3)o2)C(=O)N1c1nccs1 | 1.05 µM |
| COc1ccc(C(=O)Nc2cccc(-c3cc4ccccc4oc3=O)c2)cc1[N+](=O)[O-] | 1.24 µM |
| CN1/C(=C\C=C2C(=O)NC(=S)NC2=O)C(C)(C)c2ccccc21 | > 54 µM (inactive) |
| COc1ccc(C(=O)Nc2ccc3c(c2)C(=O)c2ccccc2C3=O)cc1OC | 0.6 µM |
| Cc1csc2ncnc(N3CCN(C(=S)Nc4ccc(F)cc4F)CC3)c12 | > 54 µM (inactive) |
| O=C(CCS(=O)(=O)c1ccccc1)Nc1ccccc1-c1nc2ccccc2s1 | > 54 µM (inactive) |
| COc1cccc(C(=O)Nc2ccc3c(c2)C(=O)c2ccccc2C3=O)c1 | 2.79 µM |
| Cc1c(NC(=O)COC(=O)c2cc(-c3ccc(-c4ccccc4)cc3)nc3ccccc23)c(=O)n(-c2ccccc2)n1C | 0.58 µM |
| O=C(N[C@@H](Cc1ccccc1)C(=O)O)c1ccncc1 | > 54 µM (inactive) |
| Cc1cccc(NC(=S)c2nc3ccccc3s2)c1 | > 54 µM (inactive) |
| CN(C)S(=O)(=O)c1cccc(NC(=O)c2cc3c(=O)n4ccccc4nc3s2)c1 | > 54 µM (inactive) |
| Cn1c(SCC(=O)N=Nc2c(O)[nH]c3ccccc23)nc2ccccc21 | > 54 µM (inactive) |
| Fc1cc2nc(-c3ccncc3)[nH]c2cc1F | > 54 µM (inactive) |
| CSC(=NCc1cccnc1)NS(=O)(=O)c1cccs1 | > 54 µM (inactive) |
